Source: the NIST ThermoML archive (doi:10.1021/acs.jced.5b01023)
“And” between values parts separate entries of the source, which are not always exact repeats. Identical values can stand only once.

Assays:
[1] = for viscosity / mass density: 101 kPa, Liquid; for viscosity: Capillary tube (Ostwald / Ubbelohde) method; for mass density: Vibrating tube method
[2] = refractive index (Na D-line) (dimensionless); settings: 101 kPa, Liquid, Standard Abbe refractometry
[3] = refractive index (Na D-line) (dimensionless); xn = mol fraction of the nth substance listed; settings: 101 kPa, Liquid, Standard Abbe refractometry, x2 = 0
[4] = xn = mol fraction of the nth substance listed; settings: for viscosity / mass density: 101 kPa, Liquid; for viscosity: Capillary tube (Ostwald / Ubbelohde) method; for mass density: Vibrating tube method

CO [methanol]
[1], Wilhelmy plate
Settings | surface tension liquid-gas [mN/m]
278.2 K | 23.8
288.2 K | 23.6
298.2 K | 22.7
308.2 K | 21.9
318.2 K | 21

CC(C)O [propan-2-ol]
Settings | mass density, [1] [kg/m3] | refractive index, [2] | viscosity, [1] [mPa·s]
288.15 K | 789.18 | 1.37933 | 2.752
298.15 K | 780.84 | 1.37517 | 2.018
308.15 K | 772.23 | 1.37093 | 1.507
318.15 K | 763.27 | 1.36643 | 1.15
328.15 K | 753.89 | 1.36173 | 0.895
338.15 K | 744.02 | 1.35682 | 0.704

[1], Wilhelmy plates
Settings | surface tension liquid-gas [mN/m]
288.15 K | 21.6
298.15 K | 21.2
308.15 K | 20.5
318.15 K | 19.6
328.15 K | 18.7
338.15 K | 17.4

CCCO [propan-1-ol] + CC(=O)[O-].CCn1cc[n+](C)c1
[3]
Settings | refractive index
288.15 K | 1.38694
298.15 K | 1.38303
308.15 K | 1.37914
318.15 K | 1.375
328.15 K | 1.37075
338.15 K | 1.36667
348.15 K | 1.36201

[4], Wilhelmy plates, x2 = 0
Settings | surface tension liquid-gas [mN/m]
288.15 K | 23.9
298.15 K | 23.4
308.15 K | 22.4
318.15 K | 22
328.15 K | 20.9
338.15 K | 19.7
348.15 K | 19

[4], x2 = 0
Settings | mass density [kg/m3] | viscosity [mPa·s]
288.15 K | 807.55 | 2.506
298.15 K | 799.56 | 1.952
308.15 K | 791.46 | 1.545
318.15 K | 783.2 | 1.238
328.15 K | 774.72 | 1.006
338.15 K | 765.98 | 0.824
348.15 K | 756.91 | 0.684

CC(C)O [propan-2-ol] + CC(=O)[O-].CCn1cc[n+](C)c1
[3]
Settings | refractive index
288.15 K | 1.37933
298.15 K | 1.37517
308.15 K | 1.37093
318.15 K | 1.36643
328.15 K | 1.36173
338.15 K | 1.35682

[4], Wilhelmy plates, x2 = 0
Settings | surface tension liquid-gas [mN/m]
288.15 K | 21.6
298.15 K | 21.2
308.15 K | 20.5
318.15 K | 19.6
328.15 K | 18.7
338.15 K | 17.4

[4], x2 = 0
Settings | mass density [kg/m3] | viscosity [mPa·s]
288.15 K | 789.18 | 2.752
298.15 K | 780.84 | 2.018
308.15 K | 772.23 | 1.507
318.15 K | 763.27 | 1.15
328.15 K | 753.89 | 0.895
338.15 K | 744.02 | 0.704

CC(=O)[O-].CCn1cc[n+](C)c1 [1-ethyl-3-methylimidazolium acetate]
Settings | mass density, [1] [kg/m3] | refractive index, [2] | viscosity, [1] [mPa·s]
288.15 K | 1105.2 | 1.50285 | 283.8
298.15 K | 1099.03 | 1.50069 | 139
308.15 K | 1092.93 | 1.49803 | 77.32
318.15 K | 1086.86 | 1.49527 | 47.37
328.15 K | 1080.82 | 1.49266 | 31.29
338.15 K | 1074.83 | 1.48995 | 21.85
348.15 K | 1068.88 | 1.48721 | 16.01

[1], Wilhelmy plates
Settings | surface tension liquid-gas
278.2 K | 48.1 mN/m
288.15 K | 47.7 mN/m
298.15 K | 47.1 mN/m
308.15 K | 46.6 mN/m and 46.1 mN/m
318.15 K | 46.1 mN/m
328.15 K | 45.9 mN/m
338.15 K | 45.4 mN/m
348.15 K | 45.1 mN/m

CO [methanol] + CC(=O)[O-].CCn1cc[n+](C)c1
[4], Wilhelmy plate, x2 = 0
Settings | surface tension liquid-gas [mN/m]
278.2 K | 23.8
288.2 K | 23.6
298.2 K | 22.7
308.2 K | 21.9
318.2 K | 21

CC(=O)[O-].CCn1cc[n+](C)c1 [1-ethyl-3-methylimidazolium acetate] + CO
surface tension liquid-gas [mN/m], [4], Wilhelmy plate
Settings | x1 = 0.1 | x1 = 0.2 | x1 = 0.3 | x1 = 0.4 | x1 = 0.5 | x1 = 0.6 | x1 = 0.6999 | x1 = 0.8003 | x1 = 0.9003 | x1 = 1
278.2 K | 28.5 | 32.7 | 35.9 | 38.4 | 40.3 | 42.1 | 44.3 | 45.9 | 47.6 | 48.1
288.2 K | 28.1 | 32.1 | 35.3 | 38 | 40 | 41.6 | 43.8 | 45.1 | 46.9 | 47.7
298.2 K | 27.5 | 31.6 | 35 | 37.5 | 39.6 | 41.1 | 43.3 | 44.7 | 46.4 | 47.1
308.2 K | 26.8 | 31.1 | 34.5 | 37.1 | 39 | 40.8 | 42.8 | 44.2 | 45.9 | 46.6
318.2 K | 26.3 | 30.6 | 33.9 | 36.5 | 38.7 | 40.4 | 42.4 | 43.9 | 45.3 | 46.1

CCCO [propan-1-ol]
Settings | mass density, [1] [kg/m3] | refractive index, [2] | viscosity, [1] [mPa·s]
288.15 K | 807.55 | 1.38694 | 2.506
298.15 K | 799.56 | 1.38303 | 1.952
308.15 K | 791.46 | 1.37914 | 1.545
318.15 K | 783.2 | 1.375 | 1.238
328.15 K | 774.72 | 1.37075 | 1.006
338.15 K | 765.98 | 1.36667 | 0.824
348.15 K | 756.91 | 1.36201 | 0.684

[1], Wilhelmy plates
Settings | surface tension liquid-gas [mN/m]
288.15 K | 23.9
298.15 K | 23.4
308.15 K | 22.4
318.15 K | 22
328.15 K | 20.9
338.15 K | 19.7
348.15 K | 19
